Data from patent US20080058213A1, “Benzoxazole Compounds” (priority 2004, published 2008).

Assays:
Format in all cases: in vivo
[1] = test system: soybean; assay: Foliage treatment test for upland field (Test Example 3): phytotoxicity to soybean; conditions: foliage treatment at 1.0-2.0 leaf stage of southern crabgrass, examined after 3 weeks
Method: (§1) Evaluation of phytotoxicity is shown in the following six grades, as compared with the condition of untreated control: • 0: normal growth • 1: little damaged • 2: low damaged • 3: medium damaged • 4: serious damaged • 5: complete killed.
(§2) Compost mixed soil was filled in 1/3,000 are pots, seeded with southern crabgrass, common lambsquaters, slender amaranth, common purslane, velvetleaf, wheat, corn and soybean. The seeds were covered up with the soil and cultured in a glasshouse kept at 25° C. on the average.
(§3) After placing the test pots in a grasshouse kept at 25° C. on the average for 3 weeks, the herbicidal effect was examined.

[2] = test system: common purslane; assay: Foliage treatment test for upland field (Test Example 3): common purslane; conditions: foliage treatment at 1.0-2.0 leaf stage of southern crabgrass, examined after 3 weeks
Description: (§4) Evaluation of the herbicidal effect is shown in the following six grades, by comparing the condition of untreated control and growth inhibition (%): • 0: 0%-less than 20% • 1: 20%-less than 40% • 2: 40%-less than 60% • 3: 60%-less than 80% • 4: 80%-less than 100% • 5: 100%.
as §2
(§5) Wettable powders containing the object compounds (1) as identified in Table 1, which were formulated following Preparation Example 2, were diluted with water to the prescribed dose of the active ingredient, and uniformly sprayed onto the weeds at 1.0-2.0 leaf stage of the southern crabgrass at an application water of 15 liters per are.
as §3
(§6) Evaluation of the herbicidal effect was conducted in the similar manner to Test Example 1.

[3] = test system: velvetleaf; assay: Foliage treatment test for upland field (Test Example 3): velvetleaf; conditions: foliage treatment at 1.0-2.0 leaf stage of southern crabgrass, examined after 3 weeks
Description: as §4, §2, §5, §3, §6

[4] = test system: wheat; assay: Soil treatment test for upland field (Test Example 2): phytotoxicity to wheat; conditions: soil treatment before germination, examined after 3 weeks
Description: as §1
(§7) Upland field soil was filled in 1/3,000 are pots, seeded with southern crabgrass (Digitaria ciliaris), common lambsquaters (Chenopodium album), slender amaranth (Amaranthus viridis), common purslane (Portulaca oleracea), velvetleaf (Abutilon theophrasti), wheat, corn and soybean. The seeds were covered up with the soil.
(§8) After placing the test pots in a glasshouse which was kept at an average temperature of 25° C. for 3 weeks, the herbicidal effect was examined.

[5] = test system: common purslane (Portulaca oleracea); assay: Soil treatment test for upland field (Test Example 2): common purslane; conditions: soil treatment before germination, examined after 3 weeks
Description: as §4, §7
(§9) Wettable powders containing the object compounds (1) as identified in Table 1, which were formulated following Preparation Example 2, were diluted with adequate amount of water to secure the prescribed dose of the active ingredient, and uniformly sprayed onto the surface soil layer after the seeding and before germination of the weeds, at an application water of 15 liters per are.
as §8
(§10) Evaluations of the herbicidal effect and phytotoxicity were made in the manner similar to those in the above Test Example 1.

[6] = test system: slender amaranth; assay: Foliage treatment test for upland field (Test Example 3): slender amaranth; conditions: foliage treatment at 1.0-2.0 leaf stage of southern crabgrass, examined after 3 weeks
Description: as §4, §2, §5, §3, §6

[7] = test system: corn; assay: Soil treatment test for upland field (Test Example 2): phytotoxicity to corn; conditions: soil treatment before germination, examined after 3 weeks
Description: as §1, §7, §8

[8] = test system: corn; assay: Foliage treatment test for upland field (Test Example 3): phytotoxicity to corn; conditions: foliage treatment at 1.0-2.0 leaf stage of southern crabgrass, examined after 3 weeks
Method: as §1, §2, §3

[9] = test system: Japanese bulrush (Scirpus juncoides); assay: Weed control test for paddy field (Test Example 1): Japanese bulrush; conditions: paddy pots, treated at 1.0 leaf stage of barnyard grass, examined after 3 weeks
Description: (§11) Paddy field soil was filled in 1/10,000 are pots, kneaded with adequate amounts of water and chemical fertilizer, seeded with barnyard grass (Echinochloa crusgalli), Monochoria (Monochoria vaginalis), Japanese bulrush (Scirpus juncoides) and flat sedge (Cyperus serotinus), and further transplanted with 2.0 leaf stage of rice plant. The pots were maintained under the water-filled condition to a depth of 3 cm.
(§12) Wettable powders containing the compounds (1) as identified in Table 1, which were formulated following Production Example 2, were diluted with adequate amount of water and applied to the pots dropwise with pippet at a prescribed dose of the active ingredients per are, at 1.0 leaf stage of the barnyard grass.
(§13) After placing the pots in a glasshouse which was controlled at an average temperature of 25° C. for 3 weeks, herbicidal effect was examined.
as §4

[10] = test system: wheat; assay: Foliage treatment test for upland field (Test Example 3): phytotoxicity to wheat; conditions: foliage treatment at 1.0-2.0 leaf stage of southern crabgrass, examined after 3 weeks
Method: as §1, §2, §3

[11] = test system: soybean; assay: Soil treatment test for upland field (Test Example 2): phytotoxicity to soybean; conditions: soil treatment before germination, examined after 3 weeks
Description: as §1, §7, §8

[12] = test system: southern crabgrass (Digitaria ciliaris); assay: Soil treatment test for upland field (Test Example 2): southern crabgrass; conditions: soil treatment before germination, examined after 3 weeks
Description: as §4, §7, §9, §8, §10

[13] = test system: southern crabgrass; assay: Foliage treatment test for upland field (Test Example 3): southern crabgrass; conditions: foliage treatment at 1.0-2.0 leaf stage of southern crabgrass, examined after 3 weeks
Description: as §4, §2, §5, §3, §6

[14] = test system: common lambsquaters; assay: Foliage treatment test for upland field (Test Example 3): common lambsquaters; conditions: foliage treatment at 1.0-2.0 leaf stage of southern crabgrass, examined after 3 weeks
Description: as §4, §2, §5, §3, §6

[15] = test system: flat sedge (Cyperus serotinus); assay: Weed control test for paddy field (Test Example 1): flat sedge; conditions: paddy pots, treated at 1.0 leaf stage of barnyard grass, examined after 3 weeks
Description: as §11, §12, §13, §4

[16] = test system: velvetleaf (Abutilon theophrasti); assay: Soil treatment test for upland field (Test Example 2): velvetleaf; conditions: soil treatment before germination, examined after 3 weeks
Description: as §4, §7, §9, §8, §10

[17] = test system: rice plant; assay: Weed control test for paddy field (Test Example 1): phytotoxicity to rice plant; conditions: paddy pots, treated at 1.0 leaf stage of barnyard grass, examined after 3 weeks
Description: as §11, §12, §13, §1

[18] = test system: Monochoria (Monochoria vaginalis); assay: Weed control test for paddy field (Test Example 1): Monochoria; conditions: paddy pots, treated at 1.0 leaf stage of barnyard grass, examined after 3 weeks
Description: as §11, §12, §13, §4

[19] = test system: slender amaranth (Amaranthus viridis); assay: Soil treatment test for upland field (Test Example 2): slender amaranth; conditions: soil treatment before germination, examined after 3 weeks
Description: as §4, §7, §9, §8, §10

[20] = test system: common lambsquaters (Chenopodium album); assay: Soil treatment test for upland field (Test Example 2): common lambsquaters; conditions: soil treatment before germination, examined after 3 weeks
Description: as §4, §7, §9, §8, §10

[21] = test system: barnyard grass (Echinochloa crusgalli); assay: Weed control test for paddy field (Test Example 1): barnyard grass; conditions: paddy pots, treated at 1.0 leaf stage of barnyard grass, examined after 3 weeks
Description: as §11, §12, §13, §4

CCOC/C(=C\c1cccc(C(F)(F)F)c1)c1nc2cc(Cl)ccc2o1 [Compound 11]
Phytotoxicity soybean ([1]; dose 2.5 g ai/a): 2 | Phytotoxicity soybean ([1]; dose 5 g ai/a): 1 | Herbicidal Effect common purslane ([2]; dose 2.5 g ai/a): 5 (100%) | Herbicidal Effect common purslane ([2]; dose 5 g ai/a): 5 (100%) | Herbicidal Effect velvetleaf ([3]; dose 2.5 g ai/a): 5 (100%) | Herbicidal Effect velvetleaf ([3]; dose 5 g ai/a): 5 (100%) | Phytotoxicity wheat ([4]; dose 2.5 g ai/a): 0 | Phytotoxicity wheat ([4]; dose 5 g ai/a): 0 | Herbicidal Effect common purslane ([5]; dose 2.5 g ai/a): 5 (100%) | Herbicidal Effect common purslane ([5]; dose 5 g ai/a): 5 (100%) | Herbicidal Effect slender amaranth ([6]; dose 2.5 g ai/a): 5 (100%) | Herbicidal Effect slender amaranth ([6]; dose 5 g ai/a): 5 (100%) | Phytotoxicity corn ([7]; dose 2.5 g ai/a): 1 | Phytotoxicity corn ([7]; dose 5 g ai/a): 1 | Phytotoxicity corn ([8]; dose 2.5 g ai/a): 2 | Phytotoxicity corn ([8]; dose 5 g ai/a): 1 | Herbicidal Effect Japanese bulrush ([9]; dose 2.5 g ai/a): 4 (80%-less than 100%) | Herbicidal Effect Japanese bulrush ([9]; dose 5 g ai/a): 5 (100%) | Phytotoxicity wheat ([10]; dose 2.5 g ai/a): 1 | Phytotoxicity wheat ([10]; dose 5 g ai/a): 1 | Phytotoxicity soybean ([11]; dose 2.5 g ai/a): 0 | Phytotoxicity soybean ([11]; dose 5 g ai/a): 0 | Herbicidal Effect southern crabgrass ([12]; dose 2.5 g ai/a): 5 (100%) | Herbicidal Effect southern crabgrass ([12]; dose 5 g ai/a): 5 (100%) | Herbicidal Effect southern crabgrass ([13]; dose 2.5 g ai/a): 5 (100%) | Herbicidal Effect southern crabgrass ([13]; dose 5 g ai/a): 5 (100%) | Herbicidal Effect Common lambsquatters ([14]; dose 2.5 g ai/a): 5 (100%) | Herbicidal Effect Common lambsquatters ([14]; dose 5 g ai/a): 5 (100%) | Herbicidal Effect Flat sedge ([15]; dose 2.5 g ai/a): 3 (60%-less than 80%) | Herbicidal Effect Flat sedge ([15]; dose 5 g ai/a): 5 (100%) | Herbicidal Effect velvetleaf ([16]; dose 2.5 g ai/a): 3 (60%-less than 80%) | Herbicidal Effect velvetleaf ([16]; dose 5 g ai/a): 4 (80%-less than 100%) | Phytotoxicity Rice plant ([17]; dose 2.5 g ai/a): 1 | Phytotoxicity Rice plant ([17]; dose 5 g ai/a): 1 | Herbicidal Effect Monochoria vaginalis ([18]; dose 2.5 g ai/a): 5 (100%) | Herbicidal Effect Monochoria vaginalis ([18]; dose 5 g ai/a): 5 (100%) | Herbicidal Effect slender amaranth ([19]; dose 2.5 g ai/a): 5 (100%) | Herbicidal Effect slender amaranth ([19]; dose 5 g ai/a): 5 (100%) | Herbicidal Effect common lambsquaters ([20]; dose 2.5 g ai/a): 5 (100%) | Herbicidal Effect common lambsquaters ([20]; dose 5 g ai/a): 5 (100%) | Herbicidal Effect Barnyard grass ([21]; dose 2.5 g ai/a): 5 (100%) | Herbicidal Effect Barnyard grass ([21]; dose 5 g ai/a): 5 (100%)

COCC(=Cc1cccc(C(F)(F)F)c1)c1nc2cc(Br)ccc2o1 [Compound 39]
Phytotoxicity soybean ([1]; dose 2.5 g ai/a): 1 | Phytotoxicity soybean ([1]; dose 5 g ai/a): 1 | Herbicidal Effect common purslane ([2]; dose 2.5 g ai/a): 5 (100%) | Herbicidal Effect common purslane ([2]; dose 5 g ai/a): 5 (100%) | Herbicidal Effect velvetleaf ([3]; dose 2.5 g ai/a): 4 (80%-less than 100%) | Herbicidal Effect velvetleaf ([3]; dose 5 g ai/a): 5 (100%) | Phytotoxicity wheat ([4]; dose 2.5 g ai/a): 0 | Phytotoxicity wheat ([4]; dose 5 g ai/a): 0 | Herbicidal Effect common purslane ([5]; dose 2.5 g ai/a): 5 (100%) | Herbicidal Effect common purslane ([5]; dose 5 g ai/a): 5 (100%) | Herbicidal Effect slender amaranth ([6]; dose 2.5 g ai/a): 5 (100%) | Herbicidal Effect slender amaranth ([6]; dose 5 g ai/a): 5 (100%) | Phytotoxicity corn ([7]; dose 2.5 g ai/a): 0 | Phytotoxicity corn ([7]; dose 5 g ai/a): 1 | Phytotoxicity corn ([8]; dose 2.5 g ai/a): 0 | Phytotoxicity corn ([8]; dose 5 g ai/a): 1 | Herbicidal Effect Japanese bulrush ([9]; dose 2.5 g ai/a): 3 (60%-less than 80%) | Herbicidal Effect Japanese bulrush ([9]; dose 5 g ai/a): 4 (80%-less than 100%) | Phytotoxicity wheat ([10]; dose 2.5 g ai/a): 0 | Phytotoxicity wheat ([10]; dose 5 g ai/a): 1 | Phytotoxicity soybean ([11]; dose 2.5 g ai/a): 0 | Phytotoxicity soybean ([11]; dose 5 g ai/a): 1 | Herbicidal Effect southern crabgrass ([12]; dose 2.5 g ai/a): 4 (80%-less than 100%) | Herbicidal Effect southern crabgrass ([12]; dose 5 g ai/a): 5 (100%) | Herbicidal Effect southern crabgrass ([13]; dose 2.5 g ai/a): 4 (80%-less than 100%) | Herbicidal Effect southern crabgrass ([13]; dose 5 g ai/a): 5 (100%) | Herbicidal Effect Common lambsquatters ([14]; dose 2.5 g ai/a): 5 (100%) | Herbicidal Effect Common lambsquatters ([14]; dose 5 g ai/a): 5 (100%) | Herbicidal Effect Flat sedge ([15]; dose 2.5 g ai/a): 2 (40%-less than 60%) | Herbicidal Effect Flat sedge ([15]; dose 5 g ai/a): 3 (60%-less than 80%) | Herbicidal Effect velvetleaf ([16]; dose 2.5 g ai/a): 4 (80%-less than 100%) | Herbicidal Effect velvetleaf ([16]; dose 5 g ai/a): 5 (100%) | Phytotoxicity Rice plant ([17]; dose 2.5 g ai/a): 0 | Phytotoxicity Rice plant ([17]; dose 5 g ai/a): 0 | Herbicidal Effect Monochoria vaginalis ([18]; dose 2.5 g ai/a): 5 (100%) | Herbicidal Effect Monochoria vaginalis ([18]; dose 5 g ai/a): 5 (100%) | Herbicidal Effect slender amaranth ([19]; dose 2.5 g ai/a): 5 (100%) | Herbicidal Effect slender amaranth ([19]; dose 5 g ai/a): 5 (100%) | Herbicidal Effect common lambsquaters ([20]; dose 2.5 g ai/a): 5 (100%) | Herbicidal Effect common lambsquaters ([20]; dose 5 g ai/a): 5 (100%) | Herbicidal Effect Barnyard grass ([21]; dose 2.5 g ai/a): 5 (100%) | Herbicidal Effect Barnyard grass ([21]; dose 5 g ai/a): 5 (100%)
